Data on eleven compounds can be found in patent US7504430B2, “Maleiimide anti-tumor phosphatase inhibitors” (The United States of America as represented by the …, priority 2004, dated 2009).

The structures appear in SMILES notation. pIC50: −log10 of the molar value. Where two headings read alike, the source gives them in different places.

Data set [1] concerns Hep3B cells. Kind of data set: Hep3B cell growth inhibition (Hoechst 33258 DNA fluorescence, 3 days of treatment). It counts as cell-based, human. As to conditions: for Potency at Hep3B cell growth inhibition compared with Cpd5: versus Cpd5 (2-(2-mercaptoethanol)-3-methyl-1,4-naphthoquinone); for Inhibition of Hep3B cell growth: even at 10 μM. As to the method: Hep3B or JM-1 hepatoma cells were grown in tissue culture in MEM medium supplemented with 10% fetal bovine serum. Cells were plated at a density of 1×104. […] Culture medium was replaced every day with new medium containing the inhibitor. After 3 days of treatment, the cells were rinsed once with PBS and frozen at −80° C. until counting. Frozen cells were thawed and incubated with the DNA-staining dye Hoescht 33258. The cell numbers were determined by measuring the dye-bound DNA fluorescence by a fluorescent plate reader.
(§1) IC50 was determined from the growth inhibition curves.

Data set [2] concerns FemX. The data set can be described thus: Tumor cell line growth inhibition, FemX. It counts as cell-based. As to conditions: Homo sapiens, Fem-X, 72 h, Skin, cultured for 3 days, maximum concentration 20 μmol/L. The method, then:
as §1

In data set [3] the test system is HR. Kind of data set: Tumor cell line growth inhibition, HR. It counts as cell-based. Particulars: Homo sapiens, 72 h, Stomach, cultured for 3 days, maximum concentration 20 μmol/L. The method, then: as §1
Data set [4] relates to SKBR3. The data set can be described thus: Tumor cell line growth inhibition, SKBR3. It counts as cell-based. As to conditions: Homo sapiens, SK-BR-3, 72 h; Breast, SKBR3, cultured for 3 days; maximum concentration 20 μmol/L. The method, then:
as §1

For data set [5], the system named is PCI. The data set can be described thus: Tumor cell line growth inhibition, PCI. Particulars: Homo sapiens, 72 h, Tongue, cultured for 3 days, maximum concentration 20 μmol/L. It counts as cell-based. The method, then: as §1
The subject of data set [6] is MCF7. The data set can be described thus: Tumor cell line growth inhibition, MCF7. The class given is cell-based. Particulars: Homo sapiens, 72 h; Breast, MCF7, cultured for 3 days; maximum concentration 20 μmol/L. As to the method: as §1
The test system of data set [7] is LS180. The data set can be described thus: Tumor cell line growth inhibition, LS180. As to conditions: Homo sapiens, 72 h; Colon, LS180, cultured for 3 days; maximum concentration 20 μmol/L. The class given is cell-based. As to the method: as §1
In data set [8] the test system is cell cycle. The data set can be described thus: Cell cycle analysis. The class given is cell-based. Particulars: with upregulation of tyrosine phosphorylation of Cdk1, 2 and 4.
The test system of data set [9] is primary cultures of normal hepatocytes. Kind of data set: DNA synthesis in primary cultures of normal hepatocytes versus Hep3B hepatoma cells. The class given is cell-based.
Data set [10] concerns the target T1, catalytic domain of Cdc25B (Homo sapiens, UniProt P30305).
T1 sequence (P30305 431-538 limits assumed): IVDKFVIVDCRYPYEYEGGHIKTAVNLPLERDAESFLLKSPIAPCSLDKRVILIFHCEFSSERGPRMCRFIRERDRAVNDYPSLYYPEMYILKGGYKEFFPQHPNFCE
Kind of data set: Binding to the catalytic domain of Cdc25B.

The subject of data set [11] is EGFR and ERK1/2. Kind of data set: Tyrosine phosphorylation of EGFR and ERK1/2. It counts as cell-based.
Data set [12] deals with T2, PYP1B (Homo sapiens, UniProt P18031).
T2 sequence (P18031 1-435): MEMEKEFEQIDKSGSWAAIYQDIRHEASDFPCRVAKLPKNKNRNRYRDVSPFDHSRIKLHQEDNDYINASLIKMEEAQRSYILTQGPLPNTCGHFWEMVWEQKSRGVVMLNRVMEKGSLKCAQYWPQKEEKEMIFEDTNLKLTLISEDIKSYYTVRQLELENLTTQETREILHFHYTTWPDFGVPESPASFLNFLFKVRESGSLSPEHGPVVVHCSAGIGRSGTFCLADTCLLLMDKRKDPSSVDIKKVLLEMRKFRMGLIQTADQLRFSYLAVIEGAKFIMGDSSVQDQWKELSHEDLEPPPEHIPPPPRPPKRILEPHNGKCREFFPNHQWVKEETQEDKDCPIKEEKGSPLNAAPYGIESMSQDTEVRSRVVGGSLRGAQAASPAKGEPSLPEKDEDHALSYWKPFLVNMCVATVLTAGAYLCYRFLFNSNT
Kind of data set: Phosphatase inhibition, PYP1B. The class given is biochemical.

Data set [13] relates to JM-1 rat hepatoma cells. The data set can be described thus: Orthotopic rat tumor model, JM-1 hepatoma cells seeded into livers of F344 rats. The class given is in vivo. Particulars: 1 mg/kg intraperitoneal, every other day, 5 injections, control rats averaged 11 tumors per liver. The method, then: JM-1 rat hepatoma cells were seeded into livers of F344 rats. […] The control rats had on the average 11 tumors per liver, whereas the PM-20-treated rats had 2 tumors per rat.

Data set [14] deals with T3, MKP1 (Homo sapiens, UniProt P28562).
T3 sequence (P28562 1-367): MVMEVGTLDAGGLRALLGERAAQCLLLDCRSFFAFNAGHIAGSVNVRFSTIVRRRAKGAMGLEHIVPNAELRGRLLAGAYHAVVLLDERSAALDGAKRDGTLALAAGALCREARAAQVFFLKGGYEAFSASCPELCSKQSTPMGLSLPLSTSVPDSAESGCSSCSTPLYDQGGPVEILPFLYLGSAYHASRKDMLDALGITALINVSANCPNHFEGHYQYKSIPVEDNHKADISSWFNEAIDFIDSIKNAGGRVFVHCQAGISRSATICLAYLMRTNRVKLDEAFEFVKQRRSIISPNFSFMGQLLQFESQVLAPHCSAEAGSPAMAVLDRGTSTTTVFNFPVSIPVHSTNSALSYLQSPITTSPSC
The data set can be described thus: Phosphatase inhibition, MKP1. It counts as biochemical.

Data set [15] concerns the target T4, CD45 (Homo sapiens, UniProt P08575).
T4 sequence (P08575 26-1306): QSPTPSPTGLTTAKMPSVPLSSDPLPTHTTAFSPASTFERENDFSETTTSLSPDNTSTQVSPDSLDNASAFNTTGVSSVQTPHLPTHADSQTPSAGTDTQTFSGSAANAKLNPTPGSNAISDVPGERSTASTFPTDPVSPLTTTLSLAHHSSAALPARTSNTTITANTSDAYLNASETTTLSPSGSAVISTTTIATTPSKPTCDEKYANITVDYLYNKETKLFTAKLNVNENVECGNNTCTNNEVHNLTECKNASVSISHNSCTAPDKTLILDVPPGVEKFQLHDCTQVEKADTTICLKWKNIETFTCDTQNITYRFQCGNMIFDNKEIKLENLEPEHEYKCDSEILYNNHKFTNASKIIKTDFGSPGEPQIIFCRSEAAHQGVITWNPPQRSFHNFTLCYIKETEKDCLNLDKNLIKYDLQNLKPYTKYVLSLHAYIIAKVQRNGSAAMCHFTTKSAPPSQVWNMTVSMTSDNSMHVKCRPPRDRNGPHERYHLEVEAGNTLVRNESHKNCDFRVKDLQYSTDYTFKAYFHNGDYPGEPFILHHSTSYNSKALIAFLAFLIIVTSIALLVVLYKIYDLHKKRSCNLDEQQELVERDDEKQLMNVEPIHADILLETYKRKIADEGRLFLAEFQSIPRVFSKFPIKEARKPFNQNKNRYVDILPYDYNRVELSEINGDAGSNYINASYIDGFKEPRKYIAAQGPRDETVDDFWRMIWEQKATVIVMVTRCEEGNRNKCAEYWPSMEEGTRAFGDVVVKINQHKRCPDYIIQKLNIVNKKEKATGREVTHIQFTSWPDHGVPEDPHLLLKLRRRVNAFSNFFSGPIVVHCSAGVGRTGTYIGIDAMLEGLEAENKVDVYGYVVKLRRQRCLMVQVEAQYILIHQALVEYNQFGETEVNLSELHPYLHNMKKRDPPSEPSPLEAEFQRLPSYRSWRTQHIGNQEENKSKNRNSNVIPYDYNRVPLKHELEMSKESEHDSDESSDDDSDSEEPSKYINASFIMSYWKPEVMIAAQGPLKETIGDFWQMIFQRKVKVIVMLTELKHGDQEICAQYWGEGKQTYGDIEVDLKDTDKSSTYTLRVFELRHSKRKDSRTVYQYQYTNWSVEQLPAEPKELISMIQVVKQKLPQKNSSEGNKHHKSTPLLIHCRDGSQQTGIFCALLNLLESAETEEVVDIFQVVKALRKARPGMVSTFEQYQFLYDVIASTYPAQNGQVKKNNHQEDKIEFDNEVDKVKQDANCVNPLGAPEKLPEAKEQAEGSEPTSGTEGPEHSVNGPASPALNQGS
Kind of data set: Phosphatase inhibition, CD45. The class given is biochemical.

The conditions of data set [16]: orally in mice; cited from earlier work.
Where [17] appears, read: Homo sapiens, 72 h, Hep3B cells, 3 days of treatment, read-out: IC50, Hep3B cell growth inhibition.
Setting [18] is: Homo sapiens, 72 h, Liver, Hep3B, cultured for 3 days, maximum concentration 20 μmol/L, read-out: IC50.

Regarding `CCCOc1ccc(N2C(=O)C(SCCO)=C(SCCO)C2=O)cc1` [PM-30, 3,4-Bis-(2-hydroxy-ethylsulfanyl)-1-(4-propoxyphenyl)-pyrrole-2,5-dione], the “Potency at Hep3B cell growth inhibition compared with Cpd5” value in data set [1] is on record as “more potent inhibitors than Cpd5”.
`O=C1C(SCCO)=C(SCCO)C(=O)N1c1ccc2ccccc2c1` [PM-34, 3,4-Bis-(2-hydroxy-ethylsulfanyl)-1-naphthalen-2-yl-maleimide]: the “Potency at Hep3B cell growth inhibition compared with Cpd5” value in data set [1] was “more potent inhibitors than Cpd5”.
The pIC50 is the IC50 on a negative log10 scale, so that one unit is a factor of ten. Consider `O=C1C(SCCO)=C(SCCO)C(=O)N1c1ccccc1` [PM-I], for which the pIC50 in data set [1] (Hep3B cells, 3 days of treatment, read-out: IC50, Hep3B cell growth inhibition) was 4.52.
As for `COc1ccc(N2C(=O)C(SCCO)=C(SCCO)C2=O)cc1` [PM-14, 3,4-bisthiolethanol-1-p-methoxyphenyl maleiimide], the negative-log IC50 (pIC50) in data set [1] (setting [17]) was 5.22.
With `CC(=O)Nc1ccc(N2C(=O)C(SCCO)=C(SCCO)C2=O)cc1` [PM-26, N-{4-[3,4-Bis-(2-hydroxy-ethylsulfanyl)-2,5-dioxo-2,5-dihydro-pyrrol-1-yl]-phenyl}-acetamide], the pIC50 in data set [1] (setting [18]), in [2], in data set [3], in data set [4], in data set [5] and in [6] was under 4.70 throughout. Also, the pIC50 in [7] is under 4.70. The “Inhibition of Hep3B cell growth” value in data set [1] is recorded as “did not inhibit”.
For the compound `O=C1C(SCCO)=C(SCCO)C(=O)N1c1ccc(-c2ccccc2)cc1` [PM-20, N-Biphenyl-4-yl-3,4-bis-(2-hydroxy-ethylsulfanyl)-maleimide], the Cell cycle effect result in data set [8] is recorded as “block, mainly in the G1 phase of cell cycle”. In addition, the “Concentration needed to inhibit DNA synthesis, normal hepatocytes versus Hep3B” value in data set [9] was determined as 10 fold. Besides, in data set [10], the “Binding to the catalytic domain of Cdc25B” value is “binds to the catalytic domain of Cdc25B”. Besides, the “Inhibition of de-phosphorylation of ERK 1/2” value in data set [11] is “potent inhibitor”. In data set [11], the “Tyrosine phosphorylation of EGFR and ERK1/2” value was “appear to induce tyrosine phosphorylation”. Besides, the pIC50 in [1] (setting [17]) is 6.15; in data set [1] (setting [18]), 6.15; in [2], 5.60; in data set [3] it was 5.22; in data set [4] it was 5.22; in data set [5], 5.60. The negative-log IC50 (pIC50) in data set [14] is 4.12; in data set [6], 5.40; in data set [7] it was under 4.70. In addition, in data set [1], the “Potency at Hep3B cell growth inhibition compared with Cpd5” value is recorded as “more potent inhibitors than Cpd5”. In data set [12], the “Activity against PYP1B” value is listed as “essentially no activity”. In [13], this compound had a Number of tumors of 2 tumors per rat. The “Activity against CD45” value in [15] is “essentially no activity”.
Turning to `CCOc1ccc(N2C(=O)C(SCCO)=C(SCCO)C2=O)cc1` [PM-28, 3,4-Bis-(2-hydroxy-ethylsulfanyl)-1-(4-ethoxyphenyl)-pyrrole-2,5-dione], the “Potency at Hep3B cell growth inhibition compared with Cpd5” value in data set [1] is “more potent inhibitors than Cpd5”.
As to `O=C1C(SCCO)=C(SCCO)C(=O)N1c1ccc(-c2ccc([N+](=O)[O-])cc2)cc1` [PM-42, 1-(4′-nitro-biphenyl-4-yl)-3,4-bis-(2-hydroxy-ethylsulfanyl)-pyrrole-2,5-dione], the pIC50 in data set [1] (setting [17]) is about 7.00.
Regarding `O=C1C(SCCO)=C(SCCO)C(=O)N1c1ccc(OCc2ccccc2)cc1` [PM-38, 1-(4-Benzyloxy-phenyl)-3,4-bis-(2-hydroxy-ethylsulfanyl)-pyrrole-2,5-dione], the “Inhibition of Hep3B cell growth” value in data set [1] is given as “did not inhibit”.
For `N#CC(=C(/N)Sc1ccccc1N)/C(C#N)=C(\N)Sc1ccccc1N` [U0126, reference compound], in data set [1] (MEK1/2 inhibitor given with PM-20, inhibition of ERK1/2 phosphorylation), the “Effect on the growth inhibitory effect of PM-20” value was “antagonized the growth inhibitory effect of PM-20”.
As to `CC1=CC(=O)c2ccccc2C1=O` [Vitamin K3], the LC50 in data set [16] is 0.5 g/kg.
